# Data reported in a melting point compilation (Tetko et al.; mined from patent text by program, amines drawn as free bases though some values may be those of a salt).
row,Structure (SMILES),melting point [°C]
1,CCCc1coc2c(Cc3ccc(C(C)C)cc3)c(C)cc(C)c12,89 to 90
2,COC(=O)C1=C(C)NC(C)=C(C(=O)OC)C1c1cc([N+](=O)[O-])ccc1OCCCCNCC(O)COc1ccccc1 (stereo not given),131 to 133
3,COc1ccc(-c2cc(-c3ccc(-c4c(Cc5ccccc5)oc5ccccc45)cc3)ccc2OC(Cc2ccccc2)C(=O)O)cc1 (stereo not given),73 to 75
4,CC(=O)Nc1ccc(OCC(F)(F)F)cc1[N+](=O)[O-],117 to 118
5,COc1ccc(N2CCN(c3ccncc3)CC2)cc1,165 to 167
6,Cc1ccc(C2(C=O)C3CC4CC(C3)CC2C4)cc1 (stereo not given),93 to 97
7,CCN(CC)S(=O)(=O)c1cc(O)c(N=Nc2c(C)nn(CC)c2O)c2ccccc12,174 to 175
8,Cc1ccccc1Cn1cc(-c2cn(C3CC(O)C(CO)O3)c(=O)[nH]c2=O)nn1 (stereo not given),168 to 170
9,CC1=N/C(=C\c2c[nH]c3ncccc23)C(=O)N1C(C)C,207
10,CC(C)(CCc1cc2cc(Cl)ccc2n1S(=O)(=O)c1ccccc1)C(=O)O,242
11,O=C1c2ccccc2C(=O)N1CCCOc1ccc(OCc2ccccc2)cc1,141 to 143
12,CC1(C)OC[C@H](Cc2ccccc2)N1C(=O)Cn1cc(-c2ccc(-c3ccccc3)cc2)cn1,150 to 151
13,NS(=O)(=O)NC(=O)N1C[C@H](NC(=O)Cc2ccccc2)C1=O,137
14,N#CCc1cc(C(=O)c2ccc(Cl)cc2)cn1Cc1ccccc1,102 to 104
15,CN(C(=O)NCCc1ccc(F)cc1)c1cccc(-c2ccc(CCC(=O)O)cc2)c1,146
16,CCc1cccc(C)c1CNc1cc(C(N)=O)cc2c1nc(C)n2C,240 to 241
17,CCCCc1nc(Cl)c(CO)n1Cc1ccc(-c2ccccc2-c2nnn(C(c3ccccc3)(c3ccccc3)c3ccccc3)n2)cc1,168 to 169
18,COC(=O)c1ccc2cc(CCCCCc3cc4ccc(C(=O)OC)cc4o3)oc2c1,83 to 85
19,CC(C)OC(=O)C(C)Oc1ncn(-c2ccccc2)n1 (stereo not given),104
20,COc1cc(-c2nc(NCCC(=O)O)c3c(C)c(C#N)sc3n2)cc(OC)c1OC,222 to 225

row,Structure (SMILES),melting point [°C]
1,N#CC(NC(=O)c1cccn2ccnc12)c1ccco1 (stereo not given),149 to 151
2,COCc1ncn2c1CN(C)C(=O)c1ccccc1-2,115 to 116
3,COc1ccc(CC(C)NCC(O)c2cccc(Cl)c2F)cc1 (stereo not given),95 to 101
4,O=C(O)Cc1cccc(OCCCc2cn(-c3ccc(C(F)(F)F)cn3)nc2-c2ccccc2)c1,132 to 133
5,C=Cc1cc2c(cc1Cl)C=C(C(=O)O)C(C(F)(F)F)O2 (stereo not given),> 200
6,CCC(CO)Nc1ccc(-c2cccc(C(F)(F)F)c2)nn1 (stereo not given),84 to 87
7,COc1ccc(CCC(C)(C)NCC(O)c2cccc(Cl)c2)cc1 (stereo not given),50 to 53
8,Nc1nc(Cl)cc(NC2C=CC(CO)C2)n1 (stereo not given),132 to 134
9,Cc1cccc(C)c1-n1c(C)nnc1S,189 to 192
10,CCOC(=O)C(C)=C(CC)NC(=O)Nc1cc(OC(C)C)c(Cl)cc1F,104 to 106
11,CC(C)(C)OC(=O)Nc1cc(CC#N)c(C#Cc2ccccc2)cc1[N+](=O)[O-],166
12,COC(=O)c1ccc(CC(C)NCC(O)c2ccc(Cl)cc2)cc1 (stereo not given),134 to 135
13,COC(=O)N1C[C@@H](C#N)[C@H](c2ccc(OC)c(OC3CCCC3)c2)C1 (relative stereo),101 to 104
14,CCCCCCCCn1nnc(NC(=O)Nc2c(C(C)C)cccc2C(C)C)n1,139 to 140
15,Cc1nc(-c2ccc(C(F)(F)F)cc2)sc1CN(C)c1ccc(OCC(=O)O)c(F)c1,113 to 114
16,CCOc1cc(C(C)(C)C)ccc1-c1nc(-c2c(F)cccc2Cl)nn1C,108 to 111
17,CCN(CC)c1ccc(N=Nc2ccc(OCCOC)c(S(=O)(=O)Cl)c2)cc1,103 to 104
18,O=c1[nH]c2cc(Cl)ccc2c(=O)cc1NCc1ccccc1,309 to 314
19,CCn1c(=O)[nH]c2c3ccccc3ccc21,240 to 242
20,Cn1c(C(F)(F)F)ccc(-c2cc3c(cc2F)OCC(=O)N3)c1=O,216 to 218

row,Structure (SMILES),melting point [°C]
1,Cc1cc(N)c2nccc(Cl)c2c1,115 to 116
2,Cc1c(OC(=O)C(C)(C)C)c(=O)ccn1C,112 to 113
3,Cn1c(=O)[nH]c2sccc2c1=O,263 to 265
4,CCCCn1cc(N)c(=O)c2cnc(-c3ccncc3)nc21,195 to 196
5,Cc1ccc(CN2CCN(C3=NC4(C=CC(=O)C=C4)C(c4ccccc4)=C3)CC2)cc1,135
6,CCOCCOCCOc1cc(N2C(=O)C3=C(CCCC3)C2=O)c(F)cc1Cl,61
7,CC(CO)Oc1cc(Oc2ccc(C(=O)N3CCC3)cc2F)cc(C(=O)O)c1 (stereo not given),133
8,C#Cc1cnn2c(C(F)F)cc(-c3ccc(Cl)c(C)c3)nc12,143
9,CN1CCN(c2ccc3[nH]c(=O)oc(=O)c3c2)CC1,285
10,Cc1nn(-c2ccccn2)c2[nH]c3ccccc3c(=S)c12,252 to 253
11,Cc1cc2c(Cl)nnc(Cl)c2n1Cc1ccccc1,122 to 124
12,CC(C)n1cc(C(=O)C(F)(F)F)c2ccc([N+](=O)[O-])cc21,143 to 145
13,COc1ccc(C2=NN(Cc3ccc(C(=O)O)cc3)C(=O)[C@H]3CCCC[C@@H]23)cc1OC (relative stereo),135 to 139
14,C[C@@H](Cn1ncc2ccc3c(c21)O[C@@H](CN=[N+]=[N-])CO3)NC(=O)OC(C)(C)C,134 to 135
15,CCCCCCCCN1CC=C(c2c[nH]c(-c3ccc(F)cc3)c2-c2ccncc2)CC1,173 to 175
16,CN(C1CCN(CC(C)(C)O)CC1)S(=O)(=O)c1ccc(Nc2nccc(Nc3ccc(F)cc3)n2)cc1,216 to 217
17,CCCCCCNC(=N)NC#N,103 to 105
18,N#Cc1c2ccccc2c(-c2ccc(O[C@H](Cc3ccccc3)C(=O)O)cc2)c2c1sc1ccccc12,145 to 148
19,NC[C@H]1C=Cc2cc(F)cc(-c3c(Cl)cccc3Cl)c2O1,153 to 155

# Other lines, results leading:
row,melting point [°C],Structure (SMILES)
1,144 to 148,CCCc1ccc(S(=O)(=O)n2c(CCC(=O)O)cc3cc(Cl)ccc32)cc1
2,140 to 142,Cc1c(CO)cc(-c2ccc(S(C)(=O)=O)cc2)n1-c1ccc(F)cc1
3,118 to 119,CCOC(=O)NS(=O)(=O)c1ccc2c(c1)CCO2
4,137 to 139,C=CCOc1cc2c(cc1CC=C)CCC(=O)N2
5,80 to 81,CCc1cc(Cl)c2cccc(OC)c2n1
6,208 to 209,CS(=O)(=O)c1ccc(-n2nc(C(F)(F)F)cc2-c2nc3c(F)cccc3s2)cc1
7,164 to 166,N=C(NCC(F)(F)F)NC(N)=S
8,110 to 112,COC(=O)COc1c(Cl)cc(Cl)c(C#N)c1Cl
9,76 to 78,CON=C(C(=O)OC)c1c(C)cccc1CBr
10,119 to 121,COc1cc(OC)nc(C(C)c2ccccc2NC(=O)OC(C)(C)C)n1 (stereo not given)
11,205 to 206,C=COC(=O)NC1Cc2ccc(-c3ccc(=O)[nH]n3)cc2C1 (stereo not given)
12,134 to 135,CC(=O)C1(OC(=O)CCl)CCC2C3CCC4=CC(=O)CCC4(C)C3CCC21C (stereo not given)
13,163 to 165,CC1(C)CCC2=C1CCC1C3CC(C#N)C(=O)C=C3CCC21 (stereo not given)
14,171 to 172,CCOC(=O)/C(=N\OCc1c(Cl)cccc1Cl)c1csc(N)n1
15,122 to 124,CC(Oc1ccccc1Cl)c1nnc(C2C(O)NC(=O)N2C)s1 (stereo not given)
16,255 to 258,Cn1cc(-c2nc3c(N[C@H]4[C@@H](C(N)=O)[C@@H]5C=C[C@H]4C5)c(Br)cnc3[nH]2)cn1
17,206 to 208,COc1cc(OC)c(-c2cc3ccccc3[nH]2)cc1C=CC(=O)c1ccc(S(=O)(=O)Nc2ccccn2)cc1
18,194 to 195,CC(=O)NC1(c2ccc(=O)n(C)c2)CCCCC1
19,200 to 205,COc1cccc2sc(Sc3ccc4c(c3)CC[C@H]3N(C)C(=O)CC[C@]43C)nc12
20,108 to 110,COc1c(Br)cc(Br)c(OC)c1C(=O)O
21,179 to 180,COc1cc2cc(C(=O)OC(C)(C)C)c(N)cc2cc1OCc1ccccc1

row,melting point [°C],Structure (SMILES)
1,79 to 81,CN(C)c1ccc2c(c1Br)C(=O)C1(CC1)O2
2,73 to 79,CCCC(=O)NCCc1c(OC)ccc2ccccc12
3,148 to 150,CC(C)OC(=O)c1cc(-n2c(=O)c3c(n(C)c2=O)CCC3)ccc1Cl
4,154 to 156,Cc1ccncc1Cn1nnnc1-c1cccc(Cl)c1Cl
5,82 to 83,Brc1ccc(N=C(c2ccccc2)c2ccccc2)cc1
6,293 to 294,CC(C)(C)c1ccc(C(=O)Nc2cn3cc(-c4ccncc4)ccc3n2)cc1
7,263 to 265,CN1CC(=O)Nc2cscc2C1=O
8,178 to 180,CC(C)(C)OC[C@@H]1NCCN(CC(=O)O)C1=O
9,138 to 140,Cc1nc(N2CCN(Cc3ccccc3C(F)(F)F)C2=O)sc1C(=O)NCc1ccccc1
10,153 to 155,OC(c1nc(-c2ccc(F)cc2)c(-c2ccc(F)cc2)[nH]1)(C(F)(F)F)C(F)(F)F
11,157 to 158,Cc1ccc(-c2ccc3c(c2)C=C(C(=O)Nc2ccc(CNc4ccccc4)cc2)CCO3)cc1
12,111 to 112,CC(C)(CCC(C)(C)NCc1ccccc1O)NCc1ccccc1O
13,> 260,Nc1nc2c(ncn2CCOCP(=O)(O)O)c(=O)[nH]1
14,259 to 263,COc1ccc(C(=O)Nc2c(Cl)cncc2Cl)c2c1OCC2CC(=O)O (stereo not given)
15,139 to 140,CSc1c(O[C@H]2CC[C@@H](N(C)C)CC2)ccc2[nH]ncc12
16,104 to 106,COC(=O)C(C)(C)OCC#Cc1cc(C(F)(F)F)ccc1NS(=O)(=O)c1ccc2nc(NC(C)=O)sc2c1
17,178 to 180,O=C(CC(=O)c1ccccc1)C(=O)CC(=O)c1ccccc1
18,180 to 181,CC(=O)Nc1cccc(C(=O)NCc2ccc(-n3c(-c4cccnc4N)nc4cc(C)cnc43)cc2)c1
19,151 to 152,CC(=O)Oc1ccc(S(=O)(=O)ON=C2CCCc3ccccc32)cc1
20,65.5 to 66,C(CSc1nnc(SCCCN2CCOCC2)s1)CN1CCOCC1
